In publication PMC7763331, “First Evidence of a Protective Effect of Plant Bioactive Compounds against H2O2-Induced Aconitase Damage in Durum Wheat Mitochondria” (Antioxidants, 2020):
Blank lines part the entries; values can stand above or below the compound they belong to.

Columns and labels:
m-aconitase [1] = target: T1, m-aconitase (Sus scrofa, UniProt P16276); assay: aconitase/isocitrate dehydrogenase coupled assay, NADPH absorbance at […] nm; format: biochemical; details: pH 8.0, 25 °C, 20 mM citrate; 10 min pre-incubation, no H2O2; activator
T1 construct: gene ACO2
T1 sequence (P16276 28-781): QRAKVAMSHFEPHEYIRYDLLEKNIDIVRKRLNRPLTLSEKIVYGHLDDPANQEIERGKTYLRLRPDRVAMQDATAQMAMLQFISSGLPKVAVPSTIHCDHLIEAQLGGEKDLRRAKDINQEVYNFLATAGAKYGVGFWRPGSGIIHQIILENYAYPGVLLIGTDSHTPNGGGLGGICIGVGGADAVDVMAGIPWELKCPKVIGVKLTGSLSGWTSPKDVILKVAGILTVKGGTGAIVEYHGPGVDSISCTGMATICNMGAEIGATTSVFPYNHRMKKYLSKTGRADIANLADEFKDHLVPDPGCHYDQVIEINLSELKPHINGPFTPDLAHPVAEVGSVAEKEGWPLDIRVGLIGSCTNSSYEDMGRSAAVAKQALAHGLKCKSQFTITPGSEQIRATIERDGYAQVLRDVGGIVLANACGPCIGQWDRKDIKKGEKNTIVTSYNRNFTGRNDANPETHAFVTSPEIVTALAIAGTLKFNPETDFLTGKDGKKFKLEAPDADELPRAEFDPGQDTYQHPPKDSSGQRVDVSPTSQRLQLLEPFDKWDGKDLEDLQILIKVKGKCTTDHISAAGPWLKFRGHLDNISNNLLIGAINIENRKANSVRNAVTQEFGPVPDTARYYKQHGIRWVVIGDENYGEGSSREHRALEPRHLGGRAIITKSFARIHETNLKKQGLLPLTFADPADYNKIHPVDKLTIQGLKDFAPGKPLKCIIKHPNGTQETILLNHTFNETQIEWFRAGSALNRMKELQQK

DWM-aconitase = test system: T2, DWM-aconitase; details: 100 mM Tris-HCl pH 8.0, 0.1% Triton X-100, 25 °C, 1 mM NADP+, 5 mM MnCl2; citrate 0.5–20 mM; lysed mitochondria
T2 construct: gene ACO

m-aconitase [2] = target: T1, m-aconitase; assay: aconitase/isocitrate dehydrogenase coupled assay, NADPH absorbance at […] nm; format: biochemical; details: pH 8.0, 25 °C, 20 mM citrate; 10 min pre-incubation, no H2O2; activator, upper limit (up to about)
m-aconitase [3] = target: T1, m-aconitase; assay: as above; format: biochemical; details: pH 8.0, 25 °C, 20 mM citrate; 10 min pre-incubation, no H2O2; activator, upper limit (up to about); remark: listed apart in the source

- % activation at 50-150 μM (m-aconitase [1]): ~ 10%
SMILES: O=c1cc(-c2ccc(O)cc2)oc2cc(O)cc(O)c12 [apigenin]

SMILES: O=C(O)CC(O)(CC(=O)O)C(=O)O [citrate]
- Km (DWM-aconitase): 4.8 ± 0.9 mM

- % activation at 100-150 μM (m-aconitase [2]): ~ 10%
SMILES: COc1cc(/C=C/C(=O)O)ccc1O [ferulic acid]

SMILES: O=c1c(O)c(-c2ccc(O)c(O)c2)oc2cc(O)cc(O)c12 [quercetin]
- % activation at 150 μM (m-aconitase [3]): ~ 20%
